One series has as its target AKAP-PKA interaction (Homo sapiens, UniProt P13861). Put plainly: AKAP-PKA interaction (disruption) assays of Examples 1-3: alpha screen, surface plasmon resonance, ELISA (combined classification). It counts as binding. The conditions noted are these: for IC50: read-out: Activity (IC50 class); for Activity in AKAP-PKA interaction assays (in words): assays of Examples 1-3. How it is done:
The inhibition of the interaction of the alpha RII subunit of protein kinase A with AKAP18-alpha by the compounds according to the invention is determined as follows:
The experiment measures the suitability of candidate compounds for the inhibition of the interaction between AKAP and PKA. An AKAP-GST fusion construct is immobilized on glutathione donor beads and His-RII-alpha on Ni-chelate acceptor beads. To the extent that the partners interact, singlet oxygen from the donor beads becomes free and activates the fluorescence emission of the acceptor beads. The fluorescence emission determined in the microplate reader is proportional to the intensity of interaction of the protein partners. The IC50 is determined from the results of the measurement of several concentrations of one candidate compound.
The details of the process were as follows: Two protein Solutions A and B are produced in a buffer (phosphate NaCl buffer, 0.1% polysorbate 80, 0.1% [=1 mg/ml BSA]). These contain (A) the histidine-6-tagged fusion construct RII-alpha-His (3.125 nmol/l) and (B) the glutathione-S-transferase-tagged fusion construct GST-AKAP18-alpha-d2-10 (6.25 nmol/l). One volume unit each of protein solution and bead suspension are incorporated, specifically Solution A of the His6-tagged protein with Ni-chelate bead suspension and Solution B of the GST-fusion protein with glutathione beads (Perkin Elmer Product No. 6765302), and in doing so the concentrations are selected according to the manufacturers information. The Mixtures A and B obtained are incubated for one hour at room temperature (RT) in the dark.
Then, 5 μl of Mixture A is laid out for each hole on a 384-hole microtiter plate, and then to start with 0.5 μl of a solution of the candidate compound in DMSO is added and then 5 μl of Mixture B. The resulting reaction mixture is incubated 1 h at RT in the dark. Then, the reaction is tempered to 28.5° C., and the emitter intensity of the acceptor is determined in a microtiter plate reader after excitation of the donor at 680 nm.
The relative inhibition of the AKAP-PKA interaction is calculated following the formula: 1−(xc−y)/(z−y) where: X=average of readings (n=3) at concentration c; Y=average of measurement data from bead-bead check (n=6); Z=average of measurement data from protein-protein check (n=6). Results:
Surface plasmon resonance analyses for competition in solution were performed with streptavidin-coated sensor chips (GE Healthcare, Uppsala, Sweden). The N-terminal biotinylated peptide AKAP18d-L314E was used, which is a variant of the RH-binding domains of AKAP18δ (Hundsrucker et al., Biochem. J. 396, 297-306, [2006]). The binding of the regulatory subunit of the human PKAII-α or RII-β onto the peptide surface of the AKAP18δ-L314E, or the inhibition of this binding to RII by the compounds of the invention, was measured on a Biacaore 3000 machine (Biacore/GE Healthcare) as previously described (Henn et al., J Biol Chem 279, 26654-26665 [2004]). The compounds were injected for 60 sec at a flow rate of 30 μl/min, and the dissociation phase was measured for 180 sec.
Multititer plates (Corning B.V. Life Sciences, Schiphol-Rijk, Netherlands) were coated with recombinantly produced PKA RIIα (15 ng/hole) by incubation with phosphate buffer containing protease inhibitors (1 h, 22° C.). The plate was then blocked with lactoprotein.
GST-AKA7δ (Hundsrucker et al., Biochem. J. 396, 297-306, [2006]; 15 ng/well) was incubated with and without candidate compounds on the plate for 1 h at 22° C. After washing, it was incubated with antibodies (rabbit) against AKA7δ (A18δ3) and then with a peroxidase-conjugated antirabbit antibody and developed with dye substrate (LumiLight Western Blotting Substrate, Roche Diagnostics, Mannheim, Germany). Luminescence activity was determined in a microplate reader (GeniosPro, Tecan, Durham, N.C., United States) at 10 msec integration.
In general terms: In SPR one partner is held on a chip, and binding of the other changes the refractive index at the surface.

For a further series, the target named is PKA subunit RIIα (Homo sapiens, UniProt P13861). Put plainly: Microscale Thermophoresis (MST). It counts as binding. The note with it: 20 mM Phosphate, pH 7.5, 100 mM NaCl, 0.05% Tween 20, 5% DMSO, 25° C. How it is done: Microscale Thermophoresis (MST) were performed on a monolith NT machine (nano tember technologies, Munich, Germany) with exemplary compounds (T2/11, 15, 59) in 20 mM Phosphate, pH 7.5, 100 mM NaCl, 0.05% Tween 20 and 5% DMSO according to the general protocol provided by the manufacturer. Interaction partners were PKA subunit RIIα labelled with blue fluorescent dye NT-495; the parameters were: LED blue, LED Power 80%, Laser Power 20-80%, 25° C. A constant concentration of compounds was titrated with increasing concentrations of unlabelled PKA RIIα (50 nM, 100 nM, 250 nM, 500 nM, 1 μM, 2.5 μM, 5 μM, 10 μM, 25 μM, 50 μM, 100 μM and 200 μM).
(In MST a laser heats a spot of the sample, and binding alters the fluorescence response.)

For series [1], the system named is TAC operated C57BL/6 mice. Put plainly: Echocardiography in the TAC model, Example 5a. It counts as in vivo. As to the method:
Protocol: For intervention 12- to 14-week-old male C57BL/6 mice (Charles River Sulzfeld) were anesthetized by 2.4% isoflurane inhalation. Transverse aortic banding (TAC) was performed by tying a 7-0 prolene suture (Ethicon) ligature around the aorta and a blunted 26-gauge needle and subsequent removal of the needle. For sham controls the suture was not tied. TAC was confirmed by echocardiography and measurement of blood flow gradient 4 weeks after surgery. Next, mini-osmotic pumps (model 1004, Alzet) with T2/15 compound/vehicle were implanted i.p. Echocardiography was performed 2 and 4 weeks with compound treatment.
For echocardiography analyses mice were anesthetized by 2.4% isoflurane inhalation and ventricular measurements were done with a VisualSonics Vevo 2100 Imaging System equipped with a 45 MHz MS-550D MicroScan transducer. The observer was unaware of the genotypes and treatments.
Differences between experimental groups were analyzed using ANOVA test followed by Bonferroni's Multiple Comparison Test using Prism Graphpad 4. Data are presented as mean±SEM. P<0.05 values were considered significant.

Series [2] has as its system C57B1/6 mice undergoing TAC operations. Put plainly: Transverse aortic constriction (TAC) animal model, Example 5. It counts as in vivo. As to the method: In male C57B1/6 mice (12-14 weeks old, average weight 26 g), high pressure overload induced by restricting the aorta following the method published by de Alameida et al. (J vis exp. 2010 Apr. 21; [38]). Control animals were treated with sham operations. The animals were observed over a period of 4 weeks after the operation, and then mini osmotic pumps were implanted intraperitoneally with a compound to be tested (0.5, 5, 50, and 100 μmol/l, corresponding to 6 μg/kg/day) (Table 2), a β1-adrenergic receptor antagonist (metoprolol; 24 mg/kg/day), a β1-adrenergic receptor […], a PDE3-inhibitor (milrinone; 3.0 mg/kg/d), and DMSO. Echocardiograms were done two and four weeks after implantation.
As expected, the narrowing of the aorta leads to cardiac hypertrophy and chronic heart failure in the 4-week period after surgery. The ejection fraction (ejection fraction; Ef) is the portion of the blood contained in the chambers of the heart that is ejected in comparison with the total volume at the end of diastole of the ventricle. […] The following groups were measured:
Animals undergoing sham operations with • only DMSO as vehicle control (solid black bar); • Compound 59, 3 μg/kg/day in DMSO (checked bar); • Compound 59, 6 μg/kg/day in DMSO (bold crosshatched bar);
Animals undergoing TAC operations with • only DMSO as vehicle control (bold vertically hatched bar); • Compound 59, 0.03 μg/kg/day in DMSO (bold diagonal hatching to upper right); • Compound 59, 0.03 μg/kg/day in DMSO (bold diagonal hatching to lower right); • Compound 59, 3 μg/kg/day in DMSO (thin diagonal hatching to upper right); • Compound 59, 6 μg/kg/day in DMSO (thin diagonal hatching to lower right);

[3] abbreviates: class from IC50 values in assays of Examples 1, 2 or 3.
Setting [4] is: between 0.3 and 3 μg/kg/d, vs. DMSO.

The term IC50 denotes the concentration that gives 50% inhibition. For orientation: Kd means the equilibrium constant for the complex coming apart. Higher therefore signals weaker binding.

Bounds are passed on as bounds.

PKA subunit RIIα, sequence (P13861 whole entry): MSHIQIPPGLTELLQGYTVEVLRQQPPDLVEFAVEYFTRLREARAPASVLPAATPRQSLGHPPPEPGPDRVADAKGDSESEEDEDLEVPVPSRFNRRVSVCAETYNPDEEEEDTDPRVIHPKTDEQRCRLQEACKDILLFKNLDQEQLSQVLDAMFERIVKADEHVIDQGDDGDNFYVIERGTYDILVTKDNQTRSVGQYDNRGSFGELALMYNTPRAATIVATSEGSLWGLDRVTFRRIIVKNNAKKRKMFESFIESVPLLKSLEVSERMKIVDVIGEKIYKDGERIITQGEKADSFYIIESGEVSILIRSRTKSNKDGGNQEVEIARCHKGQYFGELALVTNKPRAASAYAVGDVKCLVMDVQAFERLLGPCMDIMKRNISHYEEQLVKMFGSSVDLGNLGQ
AKAP-PKA interaction, sequence (P13861 2-404 limits assumed): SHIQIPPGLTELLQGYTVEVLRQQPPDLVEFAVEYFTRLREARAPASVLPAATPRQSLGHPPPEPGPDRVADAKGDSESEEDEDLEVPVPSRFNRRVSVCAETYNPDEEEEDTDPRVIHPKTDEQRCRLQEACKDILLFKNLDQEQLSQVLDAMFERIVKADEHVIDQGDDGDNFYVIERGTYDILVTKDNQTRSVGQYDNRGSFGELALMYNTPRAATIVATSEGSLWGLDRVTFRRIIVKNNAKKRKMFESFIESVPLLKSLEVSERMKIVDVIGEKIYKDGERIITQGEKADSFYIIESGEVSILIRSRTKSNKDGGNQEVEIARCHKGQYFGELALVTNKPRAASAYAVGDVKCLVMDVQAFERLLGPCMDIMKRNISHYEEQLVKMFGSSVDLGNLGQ

For `Cc1cnc(N/C=C2\Sc3ccccc3C2=O)s1` [T2/11, (2Z)-2-[[(5-methylthiazole-2-yl)amino]methylene]benzothiophene-3-one], the “IC50 relative to that of the unsubstituted mother compound” value at AKAP-PKA interaction (alkyl substituent on heteroaromatic pentacycle) was “about 50%”. Besides, the IC50 at AKAP-PKA interaction (setting [3]) is less than 150 µM. The same molecule showed a Kd on PKA subunit RIIα of 31.9 µM.
Consider `N#Cc1cnc(N/C=C2\Sc3ccccc3C2=O)s1` [T2/15, 2-[[(z)-(3-oxobenzothiophene-2-ylidene)methyl]amino]thiazole-5-carbonitrile], for which, in series [1] (setting [4]), the cardiac function entry was “improved function” and the “heart rate or -mass” value is on record as “without increasing”. The “wall dimensions and cavity diameter (IVSd, LVPWd, LVEDd)” value in series [1] (echocardiography, i.p. mini-osmotic pump, 2 and 4 weeks treatment) was “no significant effect”. Besides, the “HW/TL (heart weight normalized against tibia length)” value in series [1] (treatment vs. DMSO, FIG. 6) is “has an effect on HW/TL”. The IC50 at AKAP-PKA interaction (setting [3]) was less than 25 µM. On PKA subunit RIIα, the Kd stood at 98.1 µM.
As for `O=C1/C(=N/Nc2nccs2)Sc2ccccc21` [T2/50, (2Z)-2-(thiazole-2-ylhydrazono)benzothiophene-3-one], the IC50 on AKAP-PKA interaction (setting [3]) was less than 25 µM.
Same read-out and setting: under `Cc1csc(N/N=C2\Sc3ccccc3C2=O)n1` [T2/51, (2Z)-2-[(4-methylthiazole-2-yl)hydrazono]benzothiophene-3-one] stands less than 25 µM.
Consider `O=C1/C(=N/Nc2ncc([N+](=O)[O-])s2)Sc2ccccc21` [T2/52, (2Z)-2-[(5-nitrothiazole-2-yl)hydrazono]benzothiophene-3-one], for which the IC50 on AKAP-PKA interaction (setting [3]) was less than 25 µM.
With `O=C(O)c1cnc(N/N=C2\Sc3ccccc3C2=O)s1` [T2/53, 2-[(2Z)-2-(3-oxobenzothiophene-2-ylidene)hydrazino]thiazole-5-carboxylic acid], the half-maximal inhibitory concentration (IC50) at AKAP-PKA interaction (setting [3]) was less than 25 µM.
With `O=C1/C(=C/Nc2nc3ccccc3s2)Cc2ccccc21` [T2/55, (2e)-2-[(1,3-benzothiazole-2-ylamino)methylene]indane-1-one], the IC50 at AKAP-PKA interaction (setting [3]) is less than 250 µM.
On to `O=C(O)c1ccc(N/C=C2\Cc3ccccc3C2=O)cc1` [T2/56, 4-[[(e)-(1-oxoindan-2-ylidene)methyl]amino]benzoic acid], for which the IC50 on AKAP-PKA interaction (setting [3]) is less than 150 µM.
The same measure, in the same setting: the figure for `O=C1/C(=C/Nc2nc3ccccc3s2)Oc2ccccc21` [T2/57, (2Z)-2-[(1,3-benzothiazole-2-ylamino)methylene]benzofuran-3-one] is 250 to 750 µM.
As to `O=C(O)c1ccc(N/C=C2\Oc3ccccc3C2=O)cc1` [T2/58, 4-[[(z)-(3-oxobenzofuran-2-ylidene)methyl]amino]benzoic acid], the “Activity (IC50 class)” value on AKAP-PKA interaction (setting [3]) is 4-[[(z)-(3-oxobenzofuran-2-ylidene)methyl]amino]benzoic acid Activity: B/C.
For `O=C(O)c1ccc(N/C=C2\Sc3ccccc3C2=O)cc1` [T2/59, 4-[[(z)-(3-oxobenzothiophene-2-ylidene)methyl]amino]benzoic acid], at AKAP-PKA interaction (setting [3]), the IC50 was less than 250 µM. The Kd on PKA subunit RIIα came out at 88.5 µM. Further, the heart rate result in series [2] (TAC model mice) is “does not affect the heart rate”. Moreover, in series [2] (TAC operated mice, i.p. mini osmotic pump, depending on the dose, operated without treatment 20%, healthy >60%), the “ejection fraction (Ef)” value is recorded as 40%. Moreover, in series [2] (TAC operated treated mice, FIG. 2), the “heart weight (ratio of heart weight to the tibia length)” value is on record as “falls significantly”.
Turning to `Cc1ccccc1N/C=C1/Sc2ccccc2C1=O` [T3/4, (2E)-2-[(2-methylanilino)methylene]benzothiophen-3-one], on AKAP-PKA interaction, the “Activity in AKAP-PKA interaction assays (in words)” value is reported as “abolished activity”.
As for `O=C1/C(=C/Nc2ccc(O)cc2)Sc2ccccc21` [VI, (2Z)-2-[(4-hydroxyanilino)methylene]benzothiophen-3-one, reference compound], the “Activity in AKAP-PKA interaction assays (in words)” value at AKAP-PKA interaction is listed as “could not be found to show significant reduction of AKAP-PKA interaction”.

(Values after US9102667B2, “N-arylaminomethylene benzothiophenones for treatment of cardiovascular disease” (FORSCHUNGSVERBUND BERLIN E.V., priority 2011, dated 2015).)
